Laboratory results published in paper PMC3790966, “Honokiol: A non-adipogenic PPARγ agonist from nature^” (Biochimica et Biophysica Acta, 2013).

Columns and labels:
PPARα = target: T1, PPARα (Homo sapiens, UniProt Q07869); experiment: LBD binding (data not shown), three to four-fold higher concentrations than for PPARγ
T1 construct: gene PPARA; LBD
T1 sequence (Q07869 196-468 limits assumed): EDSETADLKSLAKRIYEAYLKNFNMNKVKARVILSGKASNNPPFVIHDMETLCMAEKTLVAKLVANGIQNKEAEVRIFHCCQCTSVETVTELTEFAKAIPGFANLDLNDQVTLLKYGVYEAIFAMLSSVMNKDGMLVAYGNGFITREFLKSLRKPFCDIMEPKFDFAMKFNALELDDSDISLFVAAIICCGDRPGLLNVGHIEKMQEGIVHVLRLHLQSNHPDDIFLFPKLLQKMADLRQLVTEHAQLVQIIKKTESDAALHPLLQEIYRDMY

PPARγ = target: T2, PPARγ (Homo sapiens, UniProt P37231); experiment: LanthaScreen TR-FRET competitive binding assay with purified LBD; supported by luciferase transactivation (partial agonist, EC50 […])
T2 construct: gene PPARG
T2 sequence (P37231 231-505 limits assumed): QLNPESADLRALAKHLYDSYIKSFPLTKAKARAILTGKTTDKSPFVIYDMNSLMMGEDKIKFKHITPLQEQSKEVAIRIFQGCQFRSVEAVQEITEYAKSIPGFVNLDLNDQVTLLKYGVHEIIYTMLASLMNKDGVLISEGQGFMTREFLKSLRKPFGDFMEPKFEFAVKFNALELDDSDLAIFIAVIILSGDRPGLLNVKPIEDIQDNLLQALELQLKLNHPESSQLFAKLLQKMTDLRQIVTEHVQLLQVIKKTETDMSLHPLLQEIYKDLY

PPARβ/δ = target: T3, PPARβ/δ (Homo sapiens, UniProt Q03181); experiment: LBD binding (data not shown), three to four-fold higher concentrations than for PPARγ
T3 construct: gene PPARD; LBD
T3 sequence (Q03181 171-441 limits assumed): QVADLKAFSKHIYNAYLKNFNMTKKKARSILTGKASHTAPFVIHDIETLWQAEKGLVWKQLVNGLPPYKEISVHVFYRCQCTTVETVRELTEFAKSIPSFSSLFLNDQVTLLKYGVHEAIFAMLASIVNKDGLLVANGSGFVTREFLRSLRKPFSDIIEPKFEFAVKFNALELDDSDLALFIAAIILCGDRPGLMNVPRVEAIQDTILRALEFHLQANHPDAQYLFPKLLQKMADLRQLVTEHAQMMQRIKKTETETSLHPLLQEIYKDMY

For C=CCc1ccc(O)c(-c2ccc(O)c(CC=C)c2)c1 [honokiol], the “LBD binding (data not shown), three to four-fold higher concentrations than for” value (PPARα) was “Honokiol also bound to the LBDs of PPARα and PPARβ/δ but only at considerably (three to four-fold) higher concentrations”, the Ki (PPARγ) was 22.9 µM and the “LBD binding (data not shown), three to four-fold higher concentrations than for” value (PPARβ/δ) was “Honokiol also bound to the LBDs of PPARα and PPARβ/δ but only at considerably (three to four-fold) higher concentrations”.
